Source: patent US20230250060A1 (IFM Due, Inc., priority 2022, published 2023)

target: T1, STING (Homo sapiens, UniProt Q86WV6, G230A/H232R/R293Q/R71H); assay: STING reporter assay (luciferase) in THP1-Dual KO-IFNAR2 cells stimulated with 2′3′cGAMP; format: cell-based; details: 2′3′cGAMP 15 μM final, 24 h, luciferase reporter activity, read-out: Pharmaron, THP1_IFNAR2 STING 24 h Luci Normalized: GeoMean EC50
T1 construct: host or cells: THP1-Dual KO-IFNAR2 cells
Procedure, shortened: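 THP1-Dual KO-IFNAR2 cells (2×10E6 cells/mL) exposed to compounds at 0.0017-100 μM final and stimulated with 2′3′cGAMP (15 μM final) delivered via Lipofectamine 2000. After 24 h at 37° C., secreted luciferase in supernatant read with QUANTI-Luc Plus; EC50 derived from luminescence.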

T1 sequence (Q86WV6 whole entry R71H/G230A/H232R/R293Q): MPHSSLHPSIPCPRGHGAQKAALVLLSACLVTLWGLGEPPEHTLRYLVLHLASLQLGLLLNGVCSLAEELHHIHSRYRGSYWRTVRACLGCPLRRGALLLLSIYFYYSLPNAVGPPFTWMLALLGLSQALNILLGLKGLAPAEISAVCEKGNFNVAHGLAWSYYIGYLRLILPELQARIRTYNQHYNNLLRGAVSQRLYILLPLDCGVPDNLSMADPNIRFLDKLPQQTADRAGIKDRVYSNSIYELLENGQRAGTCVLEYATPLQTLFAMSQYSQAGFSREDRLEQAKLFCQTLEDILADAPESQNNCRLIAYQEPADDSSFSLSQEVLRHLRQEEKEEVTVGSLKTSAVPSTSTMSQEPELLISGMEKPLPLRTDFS

SMILES | EC50 [nM]
O=C(Nc1c[nH]c2ccc(COCc3ccc(C(F)(F)F)cc3)cc12)C12CC(F)(C1)C2 [Compound 134, 3-fluoro-N-(5-(((4-(trifluoromethyl)benzyl)oxy)methyl)-1H-indol-3-yl)bicyclo[1.1.1]pentane-1-carboxamide] | 200 to 1000
O=C(Nc1c[nH]c2ccc(OCC[C@@H]3C[C@@H]4CN(CC(F)(F)F)C[C@@H]4C3)cc12)c1ccn[nH]1 [Compound 180, N-(5-(2-((3aR,5r,6aS)-2-(2,2,2-trifluoroethyl)octahydrocyclopenta[c]pyrrol-5-yl)ethoxy)-1H-indol-3-yl)-1H-pyrazole-5-carboxamide] | 200 to 1000
Cn1ccnc1C(=O)Nc1c[nH]c2ccc(O[C@H]3C[C@H](c4ccc(C(F)(F)F)cc4)C3)cc12 [Compound 220, 1-methyl-N-{5-[(1R,3R)-3-[4-(trifluoromethyl)phenyl]cyclobutoxy]-1H-indol-3-yl}-1H-imidazole-2-carboxamide] | 200 to 1000
O=C(Nc1c[nH]c2ccc(OCCc3ccc(C(F)(F)F)cc3)cc12)c1ccn[nH]1 [Compound 122, N-(5-(4-(trifluoromethyl)phenethoxy)-1H-indol-3-yl)-1H-pyrazole-5-carboxamide] | 40 to 200
Cn1ccnc1C(=O)Nc1c[nH]c2ccc(CCOc3ccc(C(F)(F)F)cc3)cc12 [Compound 143, 1-methyl-N-(5-(2-(4-(trifluoromethyl)phenoxy)ethyl)-1H-indol-3-yl)-1H-imidazole-2-carboxamide] | 40 to 200
O=C(Nc1c[nH]c2ccc(OCc3ccc(C(F)(F)F)cc3)cc12)C12CC(C1)C2 [Compound 164, N-(5-((4-(trifluoromethyl)benzyl)oxy)-1H-indol-3-yl)bicyclo[1.1.1]pentane-1-carboxamide] | 200 to 1000
Cc1oncc1C(=O)Nc1c[nH]c2ccc(O[C@H]3C[C@@H](c4ccc(C(F)(F)F)cc4)C3)cc12 [Compound 176, 5-methyl-N-(5-((1s,3s)-3-(4-(trifluoromethyl)phenyl)cyclobutoxy)-1H-indol-3-yl)isoxazole-4-carboxamide] | 5000 to 100000
Cn1nccc1C(=O)Nc1c[nH]c2ccc(CCOc3ccc(C(F)(F)F)cc3)cc12 [Compound 103, 1-methyl-N-(5-(2-(4-(trifluoromethyl)phenoxy)ethyl)-1H-indol-3-yl)-1H-pyrazole-5-carboxamide] | 200 to 1000
O=C(Nc1c[nH]c2ccc(OCCc3ccc(C(F)(F)F)cc3)cc12)C1CC12CC2 (centres unmarked) [Compound 126, N-(5-(4-(trifluoromethyl)phenethoxy)-1H-indol-3-yl)spiro[2.2]pentane-1-carboxamide] | 40 to 200
O=C(Nc1c[nH]c2ccc(CCOc3ccc(C(F)(F)F)cc3)cc12)c1ccncc1 [Compound 194, N-(5-(2-(4-(trifluoromethyl)phenoxy)ethyl)-1H-indol-3-yl)isonicotinamide] | 200 to 1000
Cn1nccc1C(=O)Nc1c[nH]c2ccc(OCc3ccc(C(F)(F)F)cc3)cc12 [Compound 162, 1-methyl-N-(5-((4-(trifluoromethyl)benzyl)oxy)-1H-indol-3-yl)-1H-pyrazole-5-carboxamide] | 200 to 1000
Cn1cc(C(=O)Nc2c[nH]c3ccc(O[C@H]4C[C@H](c5ccc(C(F)(F)F)cc5)C4)cc23)nn1 [Compound 128, 1-methyl-N-(5-((1r,3r)-3-(4-(trifluoromethyl)phenyl)cyclobutoxy)-1H-indol-3-yl)-1H-1,2,3-triazole-4-carboxamide] | 200 to 1000
O=C(Nc1c[nH]c2ccc(O[C@H]3C[C@H](c4ccc(C(F)(F)F)cc4)C3)cc12)c1cscn1 [Compound 239, N-(5-((1R,3R)-3-(4-(trifluoromethyl)phenyl)cyclobutoxy)-1H-indol-3-yl)thiazole-4-carboxamide] | 40 to 200
O=C(Nc1c[nH]c2ccc(CCOc3ccc(C(F)(F)F)cc3)cc12)c1cncs1 [Compound 120, N-(5-(2-(4-(trifluoromethyl)phenoxy)ethyl)-1H-indol-3-yl)thiazole-5-carboxamide] | 200 to 1000
CC12CC(C(=O)Nc3c[nH]c4ccc(O[C@H]5C[C@@H](c6ccc(C(F)(F)F)cc6)C5)cc34)(C1)C2 [Compound 171, 3-methyl-N-(5-((1s,3s)-3-(4-(trifluoromethyl)phenyl)cyclobutoxy)-1H-indol-3-yl)bicyclo[1.1.1]pentane-1-carboxamide] | 200 to 1000
O=C(Nc1c[nH]c2ccc(OCc3ccc(C(F)(F)F)cc3)cc12)c1ncccc1F [Compound 152, 3-fluoro-N-(5-((4-(trifluoromethyl)benzyl)oxy)-1H-indol-3-yl)picolinamide] | 200 to 1000
O=C(Nc1c[nH]c2ccc(O[C@H]3C[C@H](c4ccc(C(F)(F)F)nc4)C3)cc12)c1ccccc1 [Compound 215, N-(5-(trans-3-(6-(trifluoromethyl)pyridin-3-yl)cyclobutoxy)-1H-indol-3-yl)benzamide] | 200 to 1000
O=C(Nc1c[nH]c2ccc(O[C@H]3C[C@@H](c4ccc(C(F)(F)F)cc4)C3)cc12)C12CC(O)(C1)C2 [Compound 204, 3-hydroxy-N-(5-(cis-3-(4-(trifluoromethyl)phenyl)cyclobutoxy)-1H-indol-3 yl)bicyclo[1.1.1]pentane-1-carboxamide] | 1000 to 5000
O=C(Nc1c[nH]c2ccc(O[C@H]3C[C@H](c4ccc(C(F)(F)F)cc4)C3)cc12)C1C2COCC21 (stereo partly drawn) [Compound 207, N-(5-(trans-3-(4-(trifluoromethyl)phenyl)cyclobutoxy)-1H-indol-3-yl)-3-oxabicyclo[3.1.0]hexane-6-carboxamide] | 200 to 1000
O=C(Nc1c[nH]c2ccc(CCOc3ccc(C(F)(F)F)cc3)cc12)C12CC(F)(C1)C2 [Compound 116, 3-fluoro-N-(5-(2-(4-(trifluoromethyl)phenoxy)ethyl)-1H-indol-3-yl)bicyclo[1.1.1]pentane-1-carboxamide] | 200 to 1000
Cn1cc(C(=O)Nc2c[nH]c3ccc(O[C@H]4C[C@@H](c5ccc(C(F)(F)F)nc5)C4)cc23)nn1 [Compound 217, 1-methyl-N-(5-(cis-3-(6-(trifluoromethyl)pyridin-3-yl)cyclobutoxy)-1H-indol-3-yl)-1H-1,2,3-triazole-4-carboxamide] | 200 to 1000
O=C(Nc1c[nH]c2ccc(O[C@H]3C[C@H](c4ccc(C(F)(F)F)nc4)C3)cc12)c1ccc(C(F)(F)F)cc1 [Compound 213, 4-(trifluoromethyl)-N-(5-(trans-3-(6-(trifluoromethyl)pyridin-3-yl)cyclobutoxy)-1H-indol-3-yl)benzamide] | 200 to 1000
O=C(Nc1c[nH]c2ccc(O[C@H]3C[C@@H](c4ccc(C(F)(F)F)cc4)C3)cc12)c1cccnc1 [Compound 169, N-(5-((1s,3s)-3-(4-(trifluoromethyl)phenyl)cyclobutoxy)-1H-indol-3-yl)nicotinamide] | 40 to 200

The next lines start with the values.

EC50 [nM] | SMILES
200 to 1000 | O=C(CC1CC1)Nc1c[nH]c2ccc(OCc3ccc(C(F)(F)F)cc3)cc12 [Compound 150, 2-cyclopropyl-N-(5-((4-(trifluoromethyl)benzyl)oxy)-1H-indol-3-yl)acetamide]
200 to 1000 | O=C(Nc1c[nH]c2ccc(OCC[C@@H]3C[C@@H]4CN(CC(F)(F)F)C[C@@H]4C3)cc12)c1cncs1 [Compound 190, N-(5-(2-((3aR,5r,6aS)-2-(2,2,2-trifluoroethyl)octahydrocyclopenta[c]pyrrol-5-yl)ethoxy)-1H-indol-3-yl)thiazole-5-carboxamide]
200 to 1000 | Cc1noc(C)c1C(=O)Nc1c[nH]c2ccc(OCCc3ccc(C(F)(F)F)cc3)cc12 [Compound 112, 3,5-dimethyl-N-(5-(4-(trifluoromethyl)phenethoxy)-1H-indol-3-yl)isoxazole-4-carboxamide]
200 to 1000 | O=C(Nc1c[nH]c2ccc(OCCc3ccc(C(F)(F)F)cc3)cc12)c1cscn1 [Compound 114, N-(5-(4-(trifluoromethyl)phenethoxy)-1H-indol-3-yl)thiazole-4-carboxamide]
1000 to 5000 | O=C(Nc1c[nH]c2ccc(CCOc3ccc(C(F)(F)F)cc3)cc12)c1ccccn1 [Compound 196, N-(5-(2-(4-(trifluoromethyl)phenoxy)ethyl)-1H-indol-3-yl)picolinamide]
200 to 1000 | O=C(Nc1c[nH]c2ccc(OCC[C@@H]3C[C@@H]4CN(CC(F)(F)F)C[C@@H]4C3)cc12)C1CC2C(C1)C2(F)F (stereo partly drawn) [Compound 208, 6,6-difluoro-N-(5-(2-((3aR,5r,6aS)-2-(2,2,2-trifluoroethyl)octahydrocyclopenta[c]pyrrol-5-yl)ethoxy)-1H-indol-3-yl)bicyclo[3.1.0]hexane-3-carboxamide]
200 to 1000 | O=C(Nc1c[nH]c2ccc(OCc3ccc(C(F)(F)F)cc3)cc12)c1ccncc1 [Compound 147, N-(5-((4-(trifluoromethyl)benzyl)oxy)-1H-indol-3-yl)isonicotinamide]
200 to 1000 | O=C(Nc1c[nH]c2ccc(OCc3ccc(C(F)(F)F)cc3)cc12)C1CC2(CC2)C1 [Compound 221, N-(5-{[4-(trifluoromethyl)phenyl]methoxy}-1H-indol-3-yl)spiro[2.3]hexane-5-carboxamide]
5000 to 100000 | Cc1oncc1C(=O)Nc1c[nH]c2ccc(CCOc3ccc(C(F)(F)F)cc3)cc12 [Compound 118]
200 to 1000 | O=C(Nc1c[nH]c2ccc(CCOc3ccc(C(F)(F)F)cc3)cc12)c1nccs1 [Compound 201, N-(5-(2-(4-(trifluoromethyl)phenoxy)ethyl)-1H-indol-3-yl)thiazole-2-carboxamide]
200 to 1000 | O=C(Nc1c[nH]c2ccc(OCC[C@@H]3C[C@@H]4CN(CC(F)(F)F)C[C@@H]4C3)cc12)c1ccccc1 [Compound 224, N-(5-(2-((3aR,5r,6aS)-2-(2,2,2-trifluoroethyl)octahydrocyclopenta[c]pyrrol-5-yl)ethoxy)-1H-indol-3-yl)benzamide]
200 to 1000 | O=C(Nc1c[nH]c2ccc(CCOc3ccc(C(F)(F)F)cc3)cc12)c1ccn[nH]1 [Compound 160, N-(5-(2-(4-(trifluoromethyl)phenoxy)ethyl)-1H-indol-3-yl)-1H-pyrazole-5-carboxamide]
